Test results as given in article PMC12846068, “Insights into Transport Function of the Murine Organic Anion-Transporting Polypeptide OATP1B2 by Comparison with Its Rat and Human Orthologues” (Toxics, 2025).
“Also recorded” adds a separate entry of the source. Like-named read-outs stand apart in the source and are kept apart here.

Assays:
Format in all cases: cell-based
[1] = molecular target: T1, rOATP1B2 (Rattus norvegicus, UniProt Q9QZX8); experiment: cis-inhibition of rOATP1B2-mediated E1S or TCA uptake in HEK293 cells
T1 construct: The full-length mOATP1B2 and rOATP1B2 consist of 689 and 678 amino acids
T1 sequence (Q9QZX8 1-687): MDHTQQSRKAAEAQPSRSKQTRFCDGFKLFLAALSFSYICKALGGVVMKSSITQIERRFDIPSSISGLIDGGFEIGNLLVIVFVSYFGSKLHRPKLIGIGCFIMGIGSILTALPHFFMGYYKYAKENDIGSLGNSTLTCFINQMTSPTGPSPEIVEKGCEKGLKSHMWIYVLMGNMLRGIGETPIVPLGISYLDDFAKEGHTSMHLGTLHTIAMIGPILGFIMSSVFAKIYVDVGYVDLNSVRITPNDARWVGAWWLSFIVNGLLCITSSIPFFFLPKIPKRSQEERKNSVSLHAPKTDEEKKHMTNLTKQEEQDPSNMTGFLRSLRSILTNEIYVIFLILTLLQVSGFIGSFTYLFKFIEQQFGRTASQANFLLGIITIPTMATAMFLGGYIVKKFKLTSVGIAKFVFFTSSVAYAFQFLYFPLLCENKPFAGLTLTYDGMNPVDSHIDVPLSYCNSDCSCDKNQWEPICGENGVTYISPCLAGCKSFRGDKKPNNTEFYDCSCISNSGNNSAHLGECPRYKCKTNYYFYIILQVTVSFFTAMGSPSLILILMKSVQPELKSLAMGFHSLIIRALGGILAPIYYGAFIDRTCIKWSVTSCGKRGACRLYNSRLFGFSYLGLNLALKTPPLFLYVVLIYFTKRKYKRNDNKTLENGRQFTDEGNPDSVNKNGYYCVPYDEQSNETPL

[2] = molecular target: T2, hOATP1B1 (Homo sapiens, UniProt Q9Y6L6); experiment: cis-inhibition of hOATP1B1-mediated E1S uptake in HEK293 cells; parameters: expressed in transfected cells; host or cells: HEK-293, stably transfected; settings: 10 µM drug; for Inhibitory effect on hOATP1B1-mediated E1S uptake: 0.01 µM [3H]-E1S, 1 min; for inhibition at 1 min, 10 µM: human, HEK293 cells expressing hOATP1B1, probe 0.01 µM [3H]-E1S, read-out: Inhibitory effect on hOATP1B1-mediated E1S uptake
T2 sequence (Q9Y6L6 1-691): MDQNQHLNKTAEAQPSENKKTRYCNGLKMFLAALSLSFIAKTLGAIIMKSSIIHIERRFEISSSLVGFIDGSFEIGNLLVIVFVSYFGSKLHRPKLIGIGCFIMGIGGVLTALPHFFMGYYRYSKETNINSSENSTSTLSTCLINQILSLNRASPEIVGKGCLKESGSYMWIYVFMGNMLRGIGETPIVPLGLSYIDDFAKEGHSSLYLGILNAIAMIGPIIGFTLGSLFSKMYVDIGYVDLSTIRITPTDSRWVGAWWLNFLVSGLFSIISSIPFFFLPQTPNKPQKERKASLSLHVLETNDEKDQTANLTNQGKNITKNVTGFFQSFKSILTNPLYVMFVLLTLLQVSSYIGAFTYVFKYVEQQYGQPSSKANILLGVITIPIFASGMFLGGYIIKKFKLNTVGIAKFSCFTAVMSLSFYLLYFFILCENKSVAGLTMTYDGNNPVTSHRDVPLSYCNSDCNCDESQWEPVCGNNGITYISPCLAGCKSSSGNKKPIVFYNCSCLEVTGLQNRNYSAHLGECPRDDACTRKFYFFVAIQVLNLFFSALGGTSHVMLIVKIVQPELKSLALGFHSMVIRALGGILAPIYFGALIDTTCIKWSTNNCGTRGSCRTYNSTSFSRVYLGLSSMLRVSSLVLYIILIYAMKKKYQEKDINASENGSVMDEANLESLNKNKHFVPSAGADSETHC
Protocol: (§1) Inhibitory effects were calculated as a percentage of the net-uptake rates.
(§2) The means ± average deviation (AD, for N = 2) were calculated from two experiments on two different days. The significance as a p-value was calculated using Student’s t-test in Microsoft Excel.

[3] = molecular target: T3, hOATP1B3 (Homo sapiens, UniProt Q9NPD5); experiment: cis-inhibition of hOATP1B3-mediated TCA uptake in HEK293 cells; parameters: expressed in transfected cells; host or cells: HEK-293, stably transfected; settings: 10 µM drug; for Inhibitory effect on hOATP1B3-mediated TCA uptake: 1 µM TCA, 10 min; for inhibition at 10 min, 10 µM: human, HEK293 cells expressing hOATP1B3, probe 1 µM TCA (containing 0.01 µM [3H]-TCA), Inhibitory effect on hOATP1B3-mediated TCA uptake
T3 sequence (Q9NPD5 1-702): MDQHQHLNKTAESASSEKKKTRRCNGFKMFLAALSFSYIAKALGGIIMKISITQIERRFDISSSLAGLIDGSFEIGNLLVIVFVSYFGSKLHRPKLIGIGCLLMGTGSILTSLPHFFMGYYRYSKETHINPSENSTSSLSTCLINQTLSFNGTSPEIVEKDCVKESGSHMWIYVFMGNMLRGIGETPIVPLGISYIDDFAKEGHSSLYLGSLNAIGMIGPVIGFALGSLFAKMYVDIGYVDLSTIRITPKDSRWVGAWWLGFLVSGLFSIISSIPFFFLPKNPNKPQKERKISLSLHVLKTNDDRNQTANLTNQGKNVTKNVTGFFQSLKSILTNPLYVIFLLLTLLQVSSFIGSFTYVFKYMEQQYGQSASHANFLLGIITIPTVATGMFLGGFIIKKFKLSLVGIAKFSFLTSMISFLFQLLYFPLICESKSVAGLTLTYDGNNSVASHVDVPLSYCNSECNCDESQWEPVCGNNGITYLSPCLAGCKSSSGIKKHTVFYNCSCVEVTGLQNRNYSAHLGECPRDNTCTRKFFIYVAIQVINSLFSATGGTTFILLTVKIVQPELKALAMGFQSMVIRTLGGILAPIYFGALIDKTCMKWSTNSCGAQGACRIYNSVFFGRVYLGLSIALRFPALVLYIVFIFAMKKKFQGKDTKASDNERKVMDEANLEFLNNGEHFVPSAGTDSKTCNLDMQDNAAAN
Protocol: as §1, §2

[4] = HEK293, 10 µM drug, 1 µM [3H]-E1S, 1 min, read-out: Inhibitory effect on rOATP1B2-mediated E1S uptake
[5] = HEK293, read-out: Inhibitory effect on rOATP1B2-mediated TCA uptake, 10 µM drug, 1 µM [3H]-TCA, 1 min
[6] = HEK293, read-out: Inhibitory effect on rOATP1B2-mediated substrate uptake (summary over E1S and TCA), 10 µM drug, substrates E1S and TCA not separated

Compound | inhibition at 10 µM [1, 4] [%] | inhibition at 10 µM [1, 5] [%] | inhibition at 10 µM [1, 6] [%] | Inhibitory effect on hOATP1B1-mediated E1S uptake [2] | inhibition at 1 min, 10 µM [2] [%] | Inhibitory effect on hOATP1B3-mediated TCA uptake [3] | inhibition at 10 min, 10 µM [3] [%] | Inhibitory effect on hOATP1B1-mediated E1S uptake ([2]; listed as ketoconazole) | Inhibitory effect on hOATP1B3-mediated TCA uptake ([3]; listed as ketoconazole) | IC50 ([1]; 1 µM [3H]-E1S, 1 min, read-out: IC50, rOATP1B2-mediated E1S uptake) [nM] | fold difference of IC50 between mOATP1B2 and rOATP1B2 (stronger inhibition of rOATP1B2) ([1]; E1S uptake) [fold] | IC50 ([1]; IC50, rOATP1B2-mediated TCA uptake, 1 µM [3H]-TCA, 1 min) [nM] | fold difference of IC50 between mOATP1B2 and rOATP1B2 ([1]; TCA uptake) [fold] | Inhibitory effect on hOATP1B1-mediated E1S uptake ([2]; listed as amprenavir) | Inhibitory effect on hOATP1B3-mediated TCA uptake ([3]; listed as amprenavir) | Inhibitory effect on rOATP1B2-mediated substrate uptake (summary over E1S and TCA) ([1]; 10 µM drug, substrates E1S and TCA not separated)
CCCCC1(CCCC)CN(c2ccccc2)c2cc(SC)c(OCC(=O)N[C@@H](C(=O)N[C@@H](CC)C(=O)O)c3ccc(O)cc3)cc2S(=O)(=O)N1 [Odevixibat, odevixibat] | 82 | 74 | 54 to 82 | completely inhibited; also recorded: complete inhibition | 96 | completely inhibited; also recorded: complete inhibition | 102 |  |  |  |  |  |  |  |  | 
CO[C@H]1/C=C/O[C@@]2(C)Oc3c(C)c(O)c4c(O)c(c(/C=N/N5CCN(C)CC5)c(O)c4c3C2=O)NC(=O)/C(C)=C\C=C\[C@H](C)[C@H](O)[C@@H](C)[C@@H](O)[C@@H](C)[C@H](OC(C)=O)[C@@H]1C [Rifampicin, rifampicin] | 93 | 83 |  |  | 59 |  | 104 |  |  | 1100 | 8.7 | 2400 | 3.2 |  |  | 
CC(C)c1nc(N(C)S(C)(=O)=O)nc(-c2ccc(F)cc2)c1/C=C/[C@@H](O)C[C@@H](O)CC(=O)O [Rosuvastatin, rosuvastatin] | 73 | 69 | ≥ 50 |  | 16 |  | 24 |  |  |  |  |  |  |  |  | 

The next lines start with results.

inhibition at 10 µM [1, 4] [%] | inhibition at 10 µM [1, 5] [%] | inhibition at 10 µM [1, 6] [%] | Inhibitory effect on hOATP1B1-mediated E1S uptake [2] | inhibition at 1 min, 10 µM [2] [%] | Inhibitory effect on hOATP1B3-mediated TCA uptake [3] | inhibition at 10 min, 10 µM [3] [%] | Inhibitory effect on hOATP1B1-mediated E1S uptake ([2]; listed as ketoconazole) | Inhibitory effect on hOATP1B3-mediated TCA uptake ([3]; listed as ketoconazole) | IC50 ([1]; 1 µM [3H]-E1S, 1 min, read-out: IC50, rOATP1B2-mediated E1S uptake) [nM] | fold difference of IC50 between mOATP1B2 and rOATP1B2 (stronger inhibition of rOATP1B2) ([1]; E1S uptake) [fold] | IC50 ([1]; IC50, rOATP1B2-mediated TCA uptake, 1 µM [3H]-TCA, 1 min) [nM] | fold difference of IC50 between mOATP1B2 and rOATP1B2 ([1]; TCA uptake) [fold] | Inhibitory effect on hOATP1B1-mediated E1S uptake ([2]; listed as amprenavir) | Inhibitory effect on hOATP1B3-mediated TCA uptake ([3]; listed as amprenavir) | Compound | Inhibitory effect on rOATP1B2-mediated substrate uptake (summary over E1S and TCA) ([1]; 10 µM drug, substrates E1S and TCA not separated)
34 | 19 | < 50 | 25% |  | 23% |  | less than 50% | less than 50% |  |  |  |  |  |  | CC(=O)N1CCN(c2ccc(OCC3COC(Cn4ccnc4)(c4ccc(Cl)cc4Cl)O3)cc2)CC1 (centres unmarked) [Ketoconazole, ketoconazole] | 
21 | 27 | < 50 | −1% |  | 21% |  |  |  |  |  |  |  | less than 50% | less than 50% | CC(C)CN(C[C@@H](O)[C@H](Cc1ccccc1)NC(=O)O[C@H]1CCOC1)S(=O)(=O)c1ccc(N)cc1 [Amprenavir, amprenavir] | 
-10 | -10 |  | did not inhibit | 10 | did not inhibit | -44 |  |  |  |  |  |  |  |  | Clc1ccccc1C(c1ccccc1)(c1ccccc1)n1ccnc1 [Clotrimazole, clotrimazole] | no inhibitory properties; also recorded: did not inhibit
